Test results as given in US20240252668A1, “ANTIBODY DRUG CONJUGATES AND METHODS FOR MAKING THEREOF” (Novartis AG, priority 2021, published 2024).
Like-named read-outs stand apart in the source and are kept apart here. Starred links: 1 amine or outer side, 2 acyl side, 3 side chain; linkers in the order of their positions; H or OH if unused. Positions of bridges follow the written chain, without caps; N, C: chain ends. Non-standard residues stand in square brackets, D forms with d. Residues, ends and D or L forms follow the SMILES beside them. ξ: configuration not given here. *: point of attachment. Leu(3R-O(AcLeu(3R-OH))) = CC(=O)N[C@H](C(=O)O[C@H](C(C)C)[C@H](N)C(=O)O)[C@H](O)C(C)C; Leu(3R-OH,Nα-propionyl) = CCC(=O)N[C@H](C(=O)*)[C@H](O)C(C)C; X1 = CC(C)[C@@H](O[*:3])[C@H](N[*:1])C(=O)[*:2]; ξLeu(3ξ-OH) = CC(C)C(O)C(N)C(=O)O; NMeT = CN[CH](C(=O)O)[CH](C)O; dPhLac = O=C(O)[C@H](O)Cc1ccccc1; PhLac = O=C(O)[CH](O)Cc1ccccc1; NMeA = CN[CH](C)C(=O)O; dNMeA = CN[C@H](C)C(=O)O; NMeDha = C=C(NC)C(=O)O

Experiments:
[1] = system: MP41 uveal melanoma cell line (heterozygous GNA11 Q209L); assay: Cell proliferation assay (resazurin cell viability), MP41 cell line; assay type: cell-based
Excerpt: (§1) Cell Proliferation Assays with Chromodepsins (compounds (A1) and 2-15): Cell line descriptions: 92.1—uveal melanoma cell line, derived from primary tumor, harboring heterozygous GNAQ Q209L mutation. Purchased from Sigma Aldrich. MP41 (CRL-3297) -uveal melanoma cell line, derived from primary tumor, harboring heterozygous GNA11 Q209L mutation. Purchased from ATCC. A375—skin melanoma cell line, harboring homozygous BRAF V600E mutation. Origin: Cancer Cell Line Encyclopedia (CCLE). SK-MEL-30—skin melanoma cell line, harboring heterozygous NRAS Q61K mutation. Origin: CCLE.
(§2) Cells were cultured in 96-well plates in a total volume of 100 μL at 37° C., 5% CO2 and 95% relative humidity. All cell lines were cultured in RPMI Medium (RPMI 1640 w/o L-glutamine, Bioconcept ref. 1-41F01-I) except A375, DMEM medium (DMEM high glucose (4.5 g/L), Bioconcept, ref. 1-26F01-I), and supplemented with 10% FCS (Bioconcept, ref. 2-01F30-I). Two to three thousand cells were seeded in 96-well plates per well the night before they were treated with compounds (concentration range: from 260 nM to 0.036 nM with ⅓ dilution steps; for 7 the concentration range was increased from 10000 nM to 1.52 nM with ⅓ dilution steps). Cell viability was measured by addition of 10 ul of resazurin per well after 96 hours of treatment. Results were analyzed and plotted using GraphPad Prism 9.0.1.

MDCK-LE monolayers = assay: Cell-based transwell assay with MDCK-low efflux monolayers (passive permeability); assay type: in vitro ADME; settings: for % Fraction absorbed / % Recovery / Papp A − B: MDCK-LE monolayers
Description: Cell-based transwell assays with MDCK-low efflux monolayers: Compounds (A1) and 2-15 were tested in MDCK cell sub-clones with low effluxt ransporter activity (MDCK-LE) in order to determine their passive permeability. The incubations were performed at a contract research organization as described previously.

[2] = EPSA determination by supercritical fluid chromatography; assay type: physicochemical; settings: for EPSA: modified EPSA method, SFC
Description: […] by supercritical fluid chromatography: Compounds (A1) and 2-15 were tested by supercritical fluid chromatography (SFC) to determine their ESAPSA values. Samples were analyzed using a Chirex 3014 column ([…], 3×100 mm column, 100 Å pore size; Phenomenex. The starting conditions were 5% methanol containing 20 mM ammonium formate and 95% scCO2. The gradient was increased linearly to 60% methanol containing 20 mM ammonium formate in 4.5 min.

[3] = system: 92.1 uveal melanoma cell line (heterozygous GNAQ Q209L); assay: Cell proliferation assay (resazurin cell viability), 92.1 cell line; assay type: cell-based
Excerpt: as §1, §2

[4] = system: SK-MEL-30 skin melanoma cell line (heterozygous NRAS Q61K); assay: Cell proliferation assay (resazurin cell viability), SK-MEL-30 cell line; assay type: cell-based
Excerpt: as §1, §2

[5] = system: 92.1 and MP41 cell lines (GNAQ/GNA11 mutant uveal melanoma); assay: Cell proliferation assays, potency ranking over both uveal melanoma lines; assay type: cell-based; settings: for loss of potency compared to compound (A1) (growth inhibition): 92.1 and MP41 cell lines
Excerpt: The selective antiproliferative profile of the chromodepsins against GNAQ/GNA11 mutant cell lines is confirmed by the lack of activity against the A375 and SK MEL 30 cell lines that are independent from GNAQ/GNA11 signaling. The potency ranking using the 92.1 and MP41 cell lines is in good agreement with the previously SAR studies. […] These findings are in line with a recent report from Voss et al., highlighting the importance of the “lipophilic anchors” of compound (A1) at the residues varied in compounds 2 and 3, in context of binding kinetics and prolonged residence time on the target proteins. The retained potency of compound 4 indicates a promising exit vector for potential synthetic or biosynthetic modifications of the scaffold. […] The linearized depsipeptides compounds 5-7 lack any antiproliferative activity. In this experimental setup, the cellular permeability of the compounds was a crucial factor contributing to the observed antiproliferative potency. Therefore, all compounds were characterized in a low efflux MCDK assay and determined their exposed polar surface areas (EPSA) in order to assess their passive cellular permeabilities. All macrocyclic chromodepsins that feature the N acyl Hle side chain show similar results concerning their % fraction absorbed (% FA; average ˜60% FA+20%) and EPSA values.
as §1, §2

[6] = system: A375 skin melanoma cell line (homozygous BRAF V600E); assay: Cell proliferation assay (resazurin cell viability), A375 cell line; assay type: cell-based
Excerpt: as §1, §2

[7] = MP41 (GNA11 Q209L), 96 hours of treatment, read-out: GI50 by cell line, MP41
[8] = MP41 cell line, average of Rep. 1 and 2, read-out: GI50 MP41 Average
[9] = MP41 cell line, replicate 1, read-out: GI50 MP41 Rep. 1
[10] = MP41 cell line, replicate 2, read-out: GI50 MP41 Rep. 2
[11] = 92.1 (GNAQ Q209L), 96 hours of treatment, read-out: GI50 by cell line, 92.1
[12] = 92.1 cell line, average of Rep. 1 and 2, read-out: GI50 92.1 Average
[13] = 92.1 cell line, replicate 1, read-out: GI50 92.1 Rep. 1
[14] = 92.1 cell line, replicate 2, read-out: GI50 92.1 Rep. 2
[15] = SK-MEL-30 (GNAQ/11 wild type), 96 hours of treatment, read-out: GI50 by cell line, SK-MEL-30
[16] = SK-MEL-30 cell line, average of Rep. 1 and 2, read-out: GI50 SK-MEL-30 Average
[17] = SK-MEL-30 cell line, replicate 1, read-out: GI50 SK-MEL-30 Rep. 1
[18] = SK-MEL-30 cell line, replicate 2, read-out: GI50 SK-MEL-30 Rep. 2
[19] = A375 (GNAQ/11 wild type), 96 hours of treatment, read-out: GI50 by cell line, A375
[20] = A375 cell line, average of Rep. 1 and 2, read-out: GI50 A375 Average
[21] = A375 cell line, replicate 1, read-out: GI50 A375 Rep. 1
[22] = A375 cell line, replicate 2, read-out: GI50 A375 Rep. 2
[23] = versus macrocyclic chromodepsins with N-acyl-Hle side chain

Compound | GI50 [1, 7] [nM] | GI50 [1, 8] [nM] | GI50 [1, 9] [nM] | GI50 [1, 10] [nM] | % Fraction absorbed (MDCK-LE monolayers) [%] | % Recovery (MDCK-LE monolayers) [%] | Papp A − B (MDCK-LE monolayers) [×10⁻⁶ cm/s] | EPSA [2] [A^2] | GI50 [3, 11] [nM] | GI50 [3, 12] [nM] | GI50 [3, 13] [nM] | GI50 [3, 14] [nM] | GI50 [4, 15] [nM] | GI50 [4, 16] [nM] | GI50 [4, 17] [nM] | GI50 [4, 18] [nM] | GI50 [6, 19] [nM] | GI50 [6, 20] [nM] | GI50 [6, 21] [nM] | GI50 [6, 22] [nM] | also measured
C=C1C(=O)N[C@@H](C)C(=O)N(C)[C@@H](C)C(=O)N[C@@H]([C@H](OC(=O)[C@@H](NC(C)=O)[C@H](O)C(C)C)C(C)C)C(=O)N(C)[C@@H]([C@@H](C)OC)C(=O)O[C@H](C(C)C)[C@H](NC(C)=O)C(=O)O[C@H](Cc2ccccc2)C(=O)N1C [Compound 8] (Ac-[X1][dPhLac][NMeDha]A[NMeA][Leu(3R-O(AcLeu(3R-OH)))][NMeT](Me); ester 1-C) | 0.4 | 0.4 | 0.33 | 0.46 | 70.4 | 78 | 5.84 | 94 | 1 | 1 | 0.82 | 1.24 | > 260 | > 260 | > 260 | > 260 | > 260 | > 260 | > 260 | > 260 | loss of potency compared to compound (A1) (growth inhibition) [5]: two to three
CCC(=O)N[C@H](C(=O)O[C@H](C(C)C)[C@@H]1NC(=O)[C@H](C)N(C)C(=O)[C@H](C)NC(=O)[C@@H](C)N(C)C(=O)[C@@H](Cc2ccccc2)OC(=O)[C@@H](NC(C)=O)[C@@H](C(C)C)OC(=O)[C@H]([C@@H](C)OC)N(C)C1=O)[C@H](O)C(C)C [Compound 11] (Ac-[X1][dPhLac][dNMeA]A[NMeA][X1](Leu(3R-OH,Nα-propionyl))[NMeT](Me); ester 1-C) | 0.7 | 0.7 | 0.54 | 0.78 | 79.5 | 76 | 8.5 | 95 | 1.8 | 1.8 | 1.4 | 2.24 | > 260 | > 260 | > 260 | > 260 | > 260 | > 260 | > 260 | > 260 | loss of potency compared to compound (A1) (growth inhibition) [5]: two to three
C=C1C(=O)N[C@@H](C)C(=O)N(C)[C@@H](C)C(=O)N[C@@H]([C@H](OC(=O)[C@@H](NC(=O)CC)[C@H](O)C(C)C)C(C)C)C(=O)N(C)[C@@H]([C@@H](C)OC)C(=O)O[C@H](C)[C@H](NC(C)=O)C(=O)O[C@H](Cc2ccccc2)C(=O)N1C [Compound 14] (Ac-T[dPhLac][NMeDha]A[NMeA][X1](Leu(3R-OH,Nα-propionyl))[NMeT](Me); ester 1-C) | 2.2 | 2.2 | 1.5 | 2.81 | 53.3 | 85 | 3.32 | 95 | 5.2 | 5.2 | 2.95 | 7.53 | > 260 | > 260 | > 260 | > 260 | > 260 | > 260 | > 260 | > 260 | loss of potency compared to compound (A1) (growth inhibition) [5]: ~10 fold
C=C1C(=O)NC(C)C(=O)N(C)C(C)C(=O)NC(C(O)C(C)C)C(=O)N(C)C(C(C)OC)C(=O)OC(C)C(NC(C)=O)C(=O)OC(Cc2ccccc2)C(=O)N1C (stereo not drawn) [Compound 15] (Ac-T[PhLac][NMeDha]A[NMeA][ξLeu(3ξ-OH)][NMeT](Me); ester 1-C; configuration not given here) | > 10000 | > 10000 | > 10000 | > 10000 | 15 | 90 | 0.79 | 109 | > 10000 | > 10000 | > 10000 | > 10000 | > 10000 | > 10000 | > 10000 | > 10000 | > 10000 | > 10000 | > 10000 | > 10000 | reduction in % FA (MDCK-LE monolayers; [23]): ~5 fold; change in EPSA (in words) [2, 23]: slight changes; antiproliferative activity (in words) [5]: some antiproliferative activity observed at the highest doses tested; GI50 ([5]; cell line not specified): > 10000 nM
